These results are taken from ChEMBL document CHEMBL1140596, “Pharmacophore identification of KSP inhibitors” (Bioorg Med Chem Lett, 2007).

This test addresses T1, Kinesin-like protein KIF11 (Homo sapiens, UniProt P52732).
T1 sequence (P52732 whole entry): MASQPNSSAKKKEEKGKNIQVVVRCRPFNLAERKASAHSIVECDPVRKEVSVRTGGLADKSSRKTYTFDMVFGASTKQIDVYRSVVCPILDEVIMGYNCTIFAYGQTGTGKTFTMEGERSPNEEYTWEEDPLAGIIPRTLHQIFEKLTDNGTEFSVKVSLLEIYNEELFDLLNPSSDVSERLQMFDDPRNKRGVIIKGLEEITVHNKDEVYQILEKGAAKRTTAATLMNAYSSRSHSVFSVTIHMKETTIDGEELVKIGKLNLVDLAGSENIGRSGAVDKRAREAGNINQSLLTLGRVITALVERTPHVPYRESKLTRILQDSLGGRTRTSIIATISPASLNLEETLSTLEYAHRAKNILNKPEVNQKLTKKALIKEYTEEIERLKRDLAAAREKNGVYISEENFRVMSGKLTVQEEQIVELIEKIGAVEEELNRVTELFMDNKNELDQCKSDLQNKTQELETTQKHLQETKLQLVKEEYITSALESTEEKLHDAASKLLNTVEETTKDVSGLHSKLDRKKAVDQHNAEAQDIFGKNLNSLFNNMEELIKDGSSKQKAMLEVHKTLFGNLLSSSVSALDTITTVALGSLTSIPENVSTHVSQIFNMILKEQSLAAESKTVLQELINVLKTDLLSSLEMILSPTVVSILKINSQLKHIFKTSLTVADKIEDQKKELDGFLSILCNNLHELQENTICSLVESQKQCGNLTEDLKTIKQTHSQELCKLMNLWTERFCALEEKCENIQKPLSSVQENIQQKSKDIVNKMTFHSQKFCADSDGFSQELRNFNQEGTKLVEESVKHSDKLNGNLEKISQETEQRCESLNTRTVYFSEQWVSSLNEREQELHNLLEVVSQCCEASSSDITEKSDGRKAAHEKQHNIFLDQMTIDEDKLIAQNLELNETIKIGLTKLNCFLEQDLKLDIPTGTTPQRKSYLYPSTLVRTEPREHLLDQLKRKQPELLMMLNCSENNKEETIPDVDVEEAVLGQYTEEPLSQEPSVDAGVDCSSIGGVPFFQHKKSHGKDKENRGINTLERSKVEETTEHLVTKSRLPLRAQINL
As to the kind of experiment: Inhibition of KSP.

Usually IC50 stands for the concentration needed to halve the response being measured. A high value points to a need for much substance. On to `Cc1ccc2c(c1C)CNCC2c1ccccc1` (centres undefined), for which the IC50 is 8.23 µM. That is a single-digit micromolar value.
As to `Cc1cc2c(C(C)C)c(O)c(O)c(C=O)c2c(O)c1-c1c(C)cc2c(C(C)C)c(O)c(O)c(C=O)c2c1O` [GOSSYPOL], the midpoint of inhibition, the IC50, lay at 25 µM. This IC50 is about 3-fold higher than that of the compound before.
To `O=C(O)c1cc2c(cc1S(=O)(=O)O)C1C(C3C2C2(Cl)C(Cl)=C(Cl)C3(Cl)C2(Cl)Cl)C2(Cl)C(Cl)=C(Cl)C1(Cl)C2(Cl)Cl` (centres undefined) belongs 22 µM; to `NCCCCCN1C(=O)[C@@H]2Cc3c([nH]c4ccccc34)[C@@H](c3cccc(O)c3)N2C1=O`, 0.09 µM; to `CC(=O)N1N=C(c2cc(F)ccc2F)C[C@H]1c1ccccc1`, 0.026 µM.
Next, `OC1CC2CCC(C1)N2CCCN1c2ccccc2Sc2ccc(Cl)cc21` (centres undefined): 5.6 µM; `CCCCN1C(=O)[C@@H]2Cc3c([nH]c4ccccc34)[C@@H](c3cccc(O)c3)N2C1=O`: 0.8 µM; `CC[C@H](c1nc2cc(Cl)ccc2c(=O)n1Cc1ccccc1)N(CCCN(C)C)C(=O)c1ccc(Br)cc1`: 0.012 µM.
To `Cc1ccc(C(=O)N(CCCN)Cc2nc3cc(Cl)ccc3c(=O)n2Cc2ccccc2)cc1` belongs 0.28 µM; to `CCNCCN1CCN(CCCN2c3ccccc3Sc3ccc(C(F)(F)F)cc32)CC1`, 6.6 µM.
In turn, `Oc1cccc(C(c2cc(Cl)c(O)c(Cl)c2)C(c2cc(Cl)c(O)c(Cl)c2)c2cc(Cl)c(O)c(Cl)c2)c1Cl` (centres undefined) showed an IC50 of 27 µM.
The compound `CC(C)(O)C1C[C@@H](O)[C@]2(C)[C@H](CC[C@@]3(C)[C@H]2CC[C@H]2Cc4c([nH]c5ccccc45)[C@@]23C)O1` (some centres undefined) yielded an IC50 of 15 µM.
Next, `Oc1cccc2ccc(SSc3ccc4cccc(O)c4n3)nc12`: 145 µM; `CN1Cc2c(ccc3c2CCO3)[C@@H](c2ccccc2)C1`: 9.7 µM.
